Experimental data from a melting point compilation (Tetko et al.; mined from patent text by program, amines drawn as free bases though some values may be those of a salt).

First: Fc1ccccc1COc1nn(Cc2ccccc2F)c2ncccc12
Second: c1ccc(CSc2ncccc2-c2ccccc2)cc1
The melting point of the first is lower: 57 to 58 °C for the first, 99 to 100 °C for the second.

First: Cn1ncc(N)c1NCCO
Second: CCOC(=O)c1cnc2c3ccccc3ccn2c1=N
The melting point of the first is lower: 94 to 97 °C for the first, 197 to 199 °C for the second.

Compared with `Cc1c(C(=O)O)cnn1-c1c(Cl)cccc1Cl`, `CC(=O)N1CCC(C(=NO)c2ccc(Cl)cc2Cl)CC1` is lower in melting point: 180 to 182 °C for the first, 167 to 168 °C for the second.

First: C=CCN(C(=O)c1cnc(N2CC(C)(C)NC2=O)nc1N)c1cccc(C(F)(F)F)c1
Second: Nc1ccc(-n2cc(C(F)(F)F)ccc2=O)c(Cl)c1
The melting point of the first is higher: 187 to 188 °C for the first, 136 to 138 °C for the second.

Compared with `Nc1ncc2cc(-c3ccncc3)c(N)nc2n1`, `Cc1ccc2c(c1)[C@H](Nc1nc(N)nc(C(F)F)n1)[C@@H](C)C2` is lower in melting point: over 340 °C for the first, 132 to 134 °C for the second.

First: CN1C(=O)C=C(c2ccc3c(c2)OCO3)C1=O
Second: Fc1cccc(CNC(=S)N2CCc3c([nH]c4ccccc34)C2c2ccc3c(c2)OCO3)c1 (stereo not drawn)
The melting point of the first is higher: 210 to 215 °C for the first, 179 to 181 °C for the second.

Compared with `CN(c1ccccc1)c1ncccc1NC(=O)c1ccccc1Br`, `O=C(NNS(=O)(=O)c1ccccc1)c1nccc2ccccc12` is higher in melting point: 144 to 146 °C for the first, 198 to 200 °C for the second.

First: CC[Si](C#Cc1c2cc3ccccc3cc2c(C#C[Si](CC)(CC)CC)c2cc3ccccc3cc12)(CC)CC
Second: COc1ccc(-n2c3ccccc3c3cc(C(C#N)=C(C#N)c4cc(C(F)(F)F)cc(C(F)(F)F)c4)ccc32)cc1
The melting point of the first is higher: 210 °C for the first, 170 to 172 °C for the second.

First: O=C(Cc1cc(F)ccc1[N+](=O)[O-])N1CCN(c2nsc3ccccc23)CC1
Second: O=C1Nc2ccccc2C1CCCCN1CCN(c2ccc(Cl)c(Cl)c2)CC1 (stereo not drawn)
The melting point of the first is lower: 72 °C for the first, 112 to 114 °C for the second.

First: COc1ccccc1Oc1cccc(CC(=O)O)c1O
Second: COC(=O)C=Cc1ccc(OC)c(OCc2nc(-c3ccccc3)oc2C)c1
The melting point of the first is lower: 125 to 126 °C for the first, 135 to 136 °C for the second.

First: Cc1ncn(-c2ccc(C(=O)N3Cc4cccn4Cc4ccccc43)c(Cl)c2)n1
Second: O=c1ccn2c(n1)CN=C(c1ccccc1)c1cc(Cl)ccc1-2
The melting point of the first is lower: 191 to 193 °C for the first, 208 to 209 °C for the second.

Compared with `Cc1ccc(C=CC(=O)c2ccc3c(c2)C(C)(C)CCC3(C)C)cc1`, `CC(=O)OCc1c(CNC(=O)c2ccc(C(=O)O)cc2)ccc2c1C(C)(C)CCC2(C)C` is lower in melting point: 153 to 154 °C for the first, 95 to 100 °C for the second.

First: O=c1oc2ccccc2n1Sc1ccc(Cl)cc1
Second: COC(=O)c1ccc(SC(Cn2ccnc2)c2ccccc2C(F)(F)F)cc1 (stereo not drawn)
The melting point of the first is higher: 134 to 137 °C for the first, 121 to 126 °C for the second.

Compared with `O=c1nc(N2CCc3ccccc3C2)sc2ncccc12`, `c1ccc(CN2CCN(Cc3c[nH]c4ncccc34)CC2)cc1` is lower in melting point: 159 to 160 °C for the first, 153 °C for the second.

First: COc1c(Cl)ccc(-c2cc(N)c(Cl)c(C(=O)NO)n2)c1F
Second: CCOC(=O)c1cc(=O)c2c(ccc3nc(C(=O)OC)cc(Cl)c32)o1
The melting point of the first is lower: 166 to 169 °C for the first, 193 °C for the second.

Compared with `Cc1ccc(S(=O)(=O)NCCC(C(=O)NO)C2(CC(C)C)CCN(CCc3ccccc3)C2=O)cc1` (stereo not drawn), `Cc1ccc(CC(N)C(O)C(N)Cc2ccccc2)cc1` (stereo not drawn) is lower in melting point: 166 to 167 °C for the first, 126 to 128 °C for the second.

Compared with `CC12CCC3C(=C1CCC2=O)C=CC1=CC(=O)CCC13CO` (stereo not drawn), `O=C1Cc2ccc(N3C(=O)C4=C(CCCC4)C3=O)cc2N1` is lower in melting point: 264 to 265 °C for the first, 225 to 226 °C for the second.

Compared with `N#CCc1c[nH]c2ccc(NC(=O)Nc3ccccc3)cc12`, `COc1ccc(C(=O)Nc2ccccc2)cc1NC(=S)Nc1ccc(OC)c(OC)c1` is lower in melting point: 217 to 219 °C for the first, 170 to 171 °C for the second.

Compared with `C[C@H](CN1CC[C@@H](F)C1)NC(=O)c1c[nH]c2ncc(-c3nn(C)c4cc(Cl)ccc34)nc12`, `CCSC(=N)Nc1ccc2[nH]cc(C3=CCN(C)CC3)c2c1` is lower in melting point: 233 to 234 °C for the first, 77 to 79 °C for the second.

First: CCC(CC)Nc1c([N+](=O)[O-])cc(C)c(CO)c1[N+](=O)[O-]
Second: O=Cc1c(O)c(O)cc([N+](=O)[O-])c1CCCC(=O)O
The melting point of the first is lower: 51 to 54 °C for the first, 164 to 168 °C for the second.

First: O=C1CC[C@H](CC(c2ccc(S(=O)(=O)C3CC3)cc2)c2ccc(-c3nccs3)[nH]2)C1 (stereo partly drawn)
Second: Cc1ccc(C(CC(=O)O)C(C#N)c2cccnc2)cc1 (stereo not drawn)
The melting point of the first is lower: 165 to 167 °C for the first, 185 to 187 °C for the second.

First: Cc1nn(-c2ccccn2)cc1COc1ccc(CC(=O)O)cc1
Second: Cc1c(F)ncn1CC(=O)c1ccccc1
The melting point of the first is higher: 161 to 162 °C for the first, 84.5 °C for the second.

First: COc1nnc(-c2ccc3ncn(-c4ccc(OC(F)(F)F)cc4)c3c2)o1
Second: COc1ccc(-c2nc3n(c2-c2ccc(OC)cc2)CCS3)cc1
The melting point of the first is lower: 150 to 151 °C for the first, 155 to 158 °C for the second.

First: CCOC(=O)c1c(C(C)C)c(-c2ccc(F)cc2)cn1CC
Second: COC(=O)Cc1cc(C)c(C(=O)c2ccc(Cl)cc2)n1C
The melting point of the first is lower: 74 to 76 °C for the first, 122 to 125 °C for the second.

Compared with `CCCc1ccc2nc(C#N)c(S(N)(=O)=O)n2n1`, `NS(=O)(=O)c1ccc(C2=NNC(C(=O)O)C2)cc1` (stereo not drawn) is lower in melting point: 237 to 244 °C for the first, 224 to 226 °C for the second.

First: CC(C)(C)c1cc(CCc2nsc(=O)o2)cc(C(C)(C)C)c1O
Second: CCOCC1COc2cc3c(O)c(C(=O)OCC)cnc3cc2O1 (stereo not drawn)
The melting point of the first is lower: 82 to 86 °C for the first, 266 to 268 °C for the second.

First: O=C(O)C(Cc1ccc(OCCn2c(=O)sc3cc(C(=NO)C4CC4)ccc32)cc1)OCC(F)(F)F (stereo not drawn)
Second: COc1ccc([N+](=O)[O-])cc1C(=O)NCc1ccc(C(F)(F)F)cc1
The melting point of the first is lower: 88 to 90 °C for the first, 108 to 109 °C for the second.

First: C=C(C)C(C(=O)OCC(Cl)(Cl)Cl)N1C(=O)C(NC(=O)Cc2ccccc2)C1SSc1nc2ccccc2s1 (stereo not drawn)
Second: CC(C)CCC(=O)C(C(=O)O)C1c2ccccc2C(=O)N1c1ccc2ccc(Cl)nc2n1 (stereo not drawn)
The melting point of the first is lower: 133 to 134 °C for the first, 176 °C for the second.

First: CC(=O)CSc1nc2ccccc2[nH]1
Second: O=C(CCCCCl)c1c[nH]c2ccccc12
The melting point of the first is lower: 112 to 113 °C for the first, 165 to 167 °C for the second.

First: Clc1ccc2c(C3=CCN(CCCOc4cccc5[nH]ccc45)CC3)c[nH]c2c1Cl
Second: COc1cccc2c1OC(CN1CC=C(c3c[nH]c4cc(F)ccc34)CC1)CO2 (stereo not drawn)
The melting point of the first is higher: 224 to 227 °C for the first, 184 to 185 °C for the second.

Compared with `CC1CC(N)=NN1c1nc2c(s1)CCCC2` (stereo not drawn), `CCOC(=O)C(=O)Nc1c([N+](=O)[O-])cc(S(=O)(=O)NC(=O)C(=O)OCC)c2c1CCCC2` is lower in melting point: 247 to 249 °C for the first, 140 to 142 °C for the second.

First: CCCCCCCCCCCCNC(=O)c1cc(-c2ccc(OC)cc2)c(OCCO)c(-c2cccc(Cl)c2)c1
Second: CCCCCCCCCCNC(=O)c1cc(NCC(=O)O)cc(C(=O)NCCCCCCCCCC)c1
The melting point of the first is lower: 114 to 117 °C for the first, 172 to 173 °C for the second.

First: O=C(O)C=Cc1cc(Oc2c(Cl)cc(C(F)(F)F)cc2Cl)ccc1[N+](=O)[O-]
Second: CS(=O)(=O)c1ccc(C(=O)O)c([N+](=O)[O-])c1
The melting point of the first is lower: 192 °C for the first, 204 to 206 °C for the second.

First: CCc1nn(COC(N)=O)c(CC)c1Cc1cc(Cl)cc(Cl)c1
Second: CC(=O)NCCCc1nc2cnc3ccc(C)cc3c2n1C
The melting point of the first is lower: 153 to 155 °C for the first, 213 to 215 °C for the second.

Compared with `COc1cc(C(=O)c2c(C)c(C(=O)OCc3ccccc3)c3cc(NC(=O)OC(C)(C)C)ccn23)ccc1[N+](=O)[O-]`, `COc1cc2c(c3c1OC(C)(C)C3)C(c1ccc(=O)n(-c3ccc4ccccc4n3)c1)=NC(C)(C)C2` is higher in melting point: 95 °C for the first, 191 to 192 °C for the second.

Compared with `Cc1ccccc1C1CCN(CCc2c[nH]c3ccccc23)CC1`, `COc1ccccc1CN1CCC(=O)C(C2c3ccccc3Oc3ccccc32)C1` (stereo not drawn) is lower in melting point: 111 to 112 °C for the first, 96 to 97 °C for the second.

Compared with `COc1ccc2c(c1)N(C(C)=O)CCO2`, `COc1cccc(C(=O)N2CCc3cc(O)c(OC)cc3C2)c1` is higher in melting point: 76 to 77 °C for the first, 141 to 142 °C for the second.

First: CC[C@H](Cn1cnnn1)n1cnc2cc3c(=O)n([C@H](CC)Cn4cnnn4)nnc3cc2c1=O
Second: CCCCc1nc2c(N)nc3cccnc3c2n1CCCCNC(=O)Cn1cc(C)c(O)nc1=O
The melting point of the first is lower: 80 to 81 °C for the first, 242 to 244 °C for the second.

Compared with `CC(C)C[C@H](NC(=O)[C@@H]1CCCN1c1nc2ccccc2c(=O)o1)C(=O)NCC(N)=O`, `Cc1[nH]c(C=O)c(C)c1C(=O)NCCC1CCCN1C` (stereo not drawn) is lower in melting point: 199 to 201 °C for the first, 143 to 149 °C for the second.

`COc1cc(C2CCN(C[C@H](O)C(F)(F)F)CC2)ccc1Nc1ncc2ccc(-c3ccccc3OC)n2n1` and `Cc1c(C)c2c(c(C)c1N)CC(C)(CN1CCN(C(=O)CC(c3ccccc3)c3ccccc3)CC1)O2` (stereo not drawn) cannot be ordered by melting point: 77 to 94 °C for the first, 77 to 78 °C for the second.

First: COc1cccc(CC2(c3ccc4[nH]ccc4c3)CCNC2)c1 (stereo not drawn)
Second: COc1ccc2[nH]cc(C3=C(Cl)C(=O)C=C(Cl)C3=O)c2c1
The melting point of the first is lower: 170 to 171 °C for the first, 195 to 196 °C for the second.

First: O=C(O)c1cc(NCc2c(F)c(F)c(C(F)(F)F)c(F)c2F)ccc1Br
Second: C#CCn1c(=O)c(C(F)(F)F)cc2cc(F)c(-n3c(=O)cc(C(F)(F)F)n(C)c3=O)cc21
The melting point of the first is lower: 70 °C for the first, 248 to 250 °C for the second.

First: CCOC(=S)SCc1cc(OC)nc(N)n1
Second: CCCOc1ccc(Br)cc1-c1nc2c(C)cccc2c(=O)[nH]1
The melting point of the first is lower: 91 to 93 °C for the first, 179 to 180 °C for the second.

First: CCC(=O)OC1(C(=O)CCl)C(C)CC2C3CCC4CC(=O)CCC4(C)C3(F)C(=O)CC21C (stereo not drawn)
Second: CCCCCC(C)C(C)c1cc(O)c2c(c1)OC(C)(C)C1=C2CN(CC(=O)NC)CC1 (stereo not drawn)
The melting point of the first is higher: 184 to 186 °C for the first, 131 to 134 °C for the second.

Compared with `O=[N+]([O-])c1ccc(Oc2ccc(CBr)cc2)cc1`, `O=C(O)CCCCn1ccc2cc([N+](=O)[O-])ccc21` is higher in melting point: 68 to 70 °C for the first, 141 to 142 °C for the second.

First: Cc1nnc(C(CCN2CC3CC4CC(C3)CC2C4)(c2ccccc2)c2ccccc2)o1
Second: O=S(=O)(NC[C@@H](CO)NC(c1ccccc1)(c1ccccc1)c1ccccc1)c1ccc(Oc2ccccc2)cc1
The melting point of the first is higher: 120 to 121 °C for the first, 67 to 70 °C for the second.

First: CCNC(=O)c1c(I)cccc1[Si](C)(C)C
Second: Cc1cccc(C(=O)C(=C2SCS2)c2ccncc2)c1
The melting point of the first is lower: 135 to 137 °C for the first, 179 °C for the second.

First: CC(=O)N1CCC(CCc2ccc(N(C)C)cc2)CC1
Second: CCCNC(=NS(=O)(=O)N(C)C)N1CC(c2ccccc2)C(c2ccc(Cl)cc2)=N1 (stereo not drawn)
The melting point of the first is lower: 49 to 51 °C for the first, 127 to 129 °C for the second.

Compared with `CN(C)CCCCCOc1ccc(-c2nnc(CSCCOc3ccccc3)o2)cc1`, `COC(=O)C(CCC#N)(CCC#N)C(=O)OC` is higher in melting point: 51 to 54 °C for the first, 143 °C for the second.
